The values that follow come from US8658672B2, “HIF-1α activating agent” (University of Seoul Foundation of Industrial and Academic …, priority 2006, dated 2014).

The structures appear in SMILES notation.

The target in this test is T1, human PHD2 (Homo sapiens, UniProt Q9GZT9).
T1 construct: histidine tag; made in house; host or cells: E. coli
The test can be described thus: PHD2 activity, in vitro VHL pull down assay. The format is biochemical. Particulars: capture of [35S]-labeled VHL by GST-ODD of human HIF-1α. As for the experimental part: The present inventors investigated the effect of CQ on the activity of PHD2. Human PHD2 gene (AJ310543) was cloned into pET21b His2(+) vector and then the human PHD2 was expressed with a histidine tag in E. coli and purified by Ni-affinity chromatography (Choi, K. O. et al., Mol. Pharrmacol. 68, 1803-1809, 2005). The in vitro VHL pull down assay was performed as described by Haakkola et al (Haakkola, P. et al., Science 292,468-472, 2001). Particularly, [^35S]-methionine-labeled VHL protein was synthesized by in vitro transcription and translation using the pcDNA3.1/myc-hygro-VHL plasmid (Promega, Cat# L1170, USA), according to the instruction manual (Promega, Cat# L1170). GST-ODD (amino acids 401-603 of human HIF-1α) was expressed in E. coli and purified with glutathione-uniflow resin according to the instruction manual (BD Bioscience Clontech, Cat# 8912-1, USA). […] After agitation at 4° C. for 2 hours, the resin was washed three times with 1 ml of NETN buffer, and proteins were eluted in 3×SDS sample buffer, fractionated by 12% SDS-PAGE, and detected by autoradiography. The amount of each sample loaded was monitored by staining the GST-ODD with Coomassie blue.

T1 sequence (Q9GZT9 whole entry): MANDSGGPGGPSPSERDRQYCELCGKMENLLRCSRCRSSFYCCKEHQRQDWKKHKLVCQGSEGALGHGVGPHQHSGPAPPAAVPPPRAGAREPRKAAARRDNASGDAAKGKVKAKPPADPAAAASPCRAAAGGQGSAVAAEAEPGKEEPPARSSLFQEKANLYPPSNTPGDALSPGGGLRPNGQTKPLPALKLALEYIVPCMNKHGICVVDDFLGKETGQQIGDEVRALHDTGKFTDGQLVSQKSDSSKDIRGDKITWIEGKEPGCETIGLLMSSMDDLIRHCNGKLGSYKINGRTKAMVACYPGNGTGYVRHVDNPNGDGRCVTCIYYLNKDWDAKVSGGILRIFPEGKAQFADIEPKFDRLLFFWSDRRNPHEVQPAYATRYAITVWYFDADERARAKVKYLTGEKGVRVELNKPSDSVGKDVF

Turning to `c1ccc(CN(CCN(Cc2ccccn2)Cc2ccccn2)Cc2ccccn2)nc1` [TPEN, tetrakis-(2-pyridylmethyl)ethanediamine], the “activity of PHD2” value is “increased the activity of PHD2”.
